Test results: US9834660B2, “Rare earth metal complexes that excite in the long UV wavelength range” (HONEYWELL INTERNATIONAL INC., priority 2007, dated 2017)

Assay: Lightfastness: fluorescence intensity of dried drops on filter paper before and after SOL2 irradiation (simulated sunlight behind window glass)
Type: physicochemical
Conditions: dried drop on filter paper; for fluorescence intensity after 20 h of irradiation: after 20 h of irradiation (SOL2), 366 nm; for starting fluorescence intensity under 366 nm wavelength: before SOL2 irradiation, formula (IV) 5% solution in water, comparator in ethanol
Excerpt: As used herein, “lightfast,” “lightfastness,” and “light stable” are used interchangeably as measures of the degree of stability of fluorescence when a compound or composition is irradiated with light energy. The lightfastness of the europium complex of formula (IV), Europium[tris-4,4′-[3-[4-(4-sulfophenyl)-2-pyridinyl]-1,2,4-triazine-5,6-diphenyl]-bis-benzenesulfonic acid, trisodium)] chloride, was compared with a known europium diketonate complex, europium tris-benzoyltrifluoro-acetone, as follows: a 5% solution containing formula (IV) (in water) and a solution of europium-tris-benzoyltrifluoro-acetone (in ethanol) were prepared. One drop from each solution was placed onto a piece of filter paper. The drops were dried in air. The dried drops were then irradiated with SOL2 equipment (simulation of sunlight behind window glass). The starting fluorescence intensity under 366 nm wavelength for the drop containing europium-tris-benzoyltrifluoro-acetone was 19.4 cd/m^2, and the starting fluorescence intensity for the drop containing formula (IV) was 11.5 cd/m^2. After 20 h of irradiation at 366 nm, the fluorescence intensity for the drop containing europium-tris-benzoyltrifluoro-acetone had decreased to only 3.2 cd/m^2, as compared with a fluorescence intensity for the drop containing formula (IV) that was 10.7 cd/m^2.
This occurred even though the molar concentration of the solution containing formula (IV) was lower than the molar concentration of europium-tris-benzoyltrifluoro-acetone (2.2×10^−4 mol versus 6×10^−4 mol, respectively).

Substance | fluorescence intensity after 20 h of irradiation | starting fluorescence intensity under 366 nm wavelength
Europium[tris-4,4′-[3-[4-(4-sulfophenyl)-2-pyridinyl]-1,2,4-triazine-5,6-diphenyl]-bis-benzenesulfonic acid, trisodium)] chloride [formula (IV)] | 10.7 cd/m^2 | 11.5 cd/m^2
europium tris-benzoyltrifluoro-acetone [europium-tris-benzoyltrifluoro-acetone] | 3.2 cd/m^2 | 19.4 cd/m^2
